# In patent US11001590B2, “Pyrazolopyrimidine derivatives” (BAYER ANIMAL HEALTH GMBH, priority 2016, dated 2021):
# Molecular target: C. elegans Slo-1a (Caenorhabditis elegans, UniProt Q95V25)
# Assay: In vitro assay 1: C. elegans Slo-1a, action at a recombinant C. elegans CHO cell line (membrane potential measurement)
# Details: CHO cells expressing C. elegans Slo-1a; voltage sensitive dye, FLIPR Tetra; negative decadic logarithm of EC50
# C. elegans Slo-1a, sequence (Q95V25 whole entry): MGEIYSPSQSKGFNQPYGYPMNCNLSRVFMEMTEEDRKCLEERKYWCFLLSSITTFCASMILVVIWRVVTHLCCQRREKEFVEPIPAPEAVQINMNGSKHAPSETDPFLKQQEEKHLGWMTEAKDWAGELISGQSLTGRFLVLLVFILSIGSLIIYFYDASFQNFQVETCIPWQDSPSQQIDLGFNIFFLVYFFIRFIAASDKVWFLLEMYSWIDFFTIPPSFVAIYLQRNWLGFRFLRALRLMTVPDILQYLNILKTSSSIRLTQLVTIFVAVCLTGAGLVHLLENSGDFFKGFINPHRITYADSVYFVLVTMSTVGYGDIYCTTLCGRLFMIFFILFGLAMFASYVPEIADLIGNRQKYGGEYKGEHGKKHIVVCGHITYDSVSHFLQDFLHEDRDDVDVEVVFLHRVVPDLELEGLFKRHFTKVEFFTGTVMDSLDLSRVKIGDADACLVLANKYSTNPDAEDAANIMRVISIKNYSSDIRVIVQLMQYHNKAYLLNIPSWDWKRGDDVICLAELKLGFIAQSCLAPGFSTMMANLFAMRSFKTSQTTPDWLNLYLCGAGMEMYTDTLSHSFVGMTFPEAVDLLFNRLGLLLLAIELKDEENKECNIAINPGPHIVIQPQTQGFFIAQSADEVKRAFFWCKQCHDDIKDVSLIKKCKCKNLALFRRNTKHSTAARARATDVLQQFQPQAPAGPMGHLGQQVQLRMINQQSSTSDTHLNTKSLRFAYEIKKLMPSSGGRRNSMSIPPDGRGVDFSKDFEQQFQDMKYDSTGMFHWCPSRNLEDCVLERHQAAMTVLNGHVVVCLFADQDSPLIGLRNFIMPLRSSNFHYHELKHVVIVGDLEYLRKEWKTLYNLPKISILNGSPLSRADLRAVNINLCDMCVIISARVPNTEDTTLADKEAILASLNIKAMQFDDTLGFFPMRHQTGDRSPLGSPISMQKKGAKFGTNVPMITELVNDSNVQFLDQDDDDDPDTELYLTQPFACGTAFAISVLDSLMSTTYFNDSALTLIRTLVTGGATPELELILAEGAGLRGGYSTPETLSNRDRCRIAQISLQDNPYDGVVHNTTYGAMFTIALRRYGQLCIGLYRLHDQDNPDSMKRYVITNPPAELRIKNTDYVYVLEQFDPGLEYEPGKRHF
row,Compound,pE50
1,CC(C)c1c(C(=O)N[C@H]2CCOc3ccccc32)cnc2c(-c3ccc(Cl)cc3Cl)c(C(F)F)nn12 [Example 507],8.1
2,CC(C)c1c(C(=O)N[C@H]2CCOc3ccccc32)cnc2c(-c3ccc(F)c(F)c3F)c(C(F)F)nn12 [Example 508],8.2
3,Cc1nn2c(C3CC3)c(C(=O)N[C@H]3CCOc4ccccc43)cnc2c1-c1cc(C(F)(F)F)ccc1Cl [Example 509],8.9
4,Cc1nn2c(C3CC3)c(C(=O)N[C@H]3CCOc4ccccc43)cnc2c1-c1cccc2c1CCO2 [Example 510],8.6
5,O=C(N[C@H]1CCOc2ccccc21)c1cnc2c(-c3ccc(Cl)cc3Cl)c(C(F)F)nn2c1C1CC1 [Example 511],8.4
6,O=C(N[C@H]1CCOc2ccccc21)c1cnc2c(-c3cccc(Cl)c3Cl)c(C(F)F)nn2c1C1CC1 [Example 512],8.9
7,Cc1nn2c(N3CCOCC3)c(C(=O)N[C@H]3CCOc4ccccc43)cnc2c1-c1ccc(F)c(N(C)C)c1F [Example 543],8.6
8,Cc1nn2c(N3CCOCC3)c(C(=O)N[C@H]3CCOc4ccccc43)cnc2c1-c1c(Cl)cccc1Cl [Example 544],8.3
9,Cc1nn2c(N3CCOCC3)c(C(=O)N[C@H]3CCOc4ccccc43)cnc2c1-c1c(F)ccc(Cl)c1F [Example 545],8.8
10,Cc1nn2c(N(C)C)c(C(=O)N[C@H]3CCOc4ccccc43)cnc2c1-c1cc(C(F)(F)F)ccc1F [Example 547],8.9
11,Cc1nn2c(N(C)C)c(C(=O)N[C@H]3CCOc4ccccc43)cnc2c1-c1cccc(F)c1F [Example 549],8.4
12,Cc1nn2c(N(C)C)c(C(=O)N[C@H]3CCOc4ccccc43)cnc2c1-c1ccc(F)c(N(C)C)c1F [Example 550],8.7
13,COc1c(F)ccc(-c2c(C)nn3c(N(C)C)c(C(=O)N[C@H]4CCOc5ccccc54)cnc23)c1F [Example 551],8.9
14,Cc1nn2c(N(C)C)c(C(=O)N[C@H]3CCOc4ccccc43)cnc2c1-c1cccc(Cl)c1F [Example 552],8.7
15,Cc1ccccc1-c1c(C)nn2c(N(C)C)c(C(=O)N[C@H]3CCOc4ccccc43)cnc12 [Example 553],8.2
16,Cc1nn2c(N(C)C)c(C(=O)N[C@H]3CCOc4ccccc43)cnc2c1-c1c(F)ccc(F)c1F [Example 554],8.7
17,Cc1nn2c(N(C)C3CC3)c(C(=O)N[C@H]3CCOc4ccccc43)cnc2c1-c1cc(Cl)cc(Cl)c1 [Example 555],7.6
18,Cc1nn2c(N(C)CCN3CCCC3=O)c(C(=O)N[C@H]3CCOc4ccccc43)cnc2c1-c1cc(Cl)cc(Cl)c1 [Example 560],8.2
19,COCCOCCOCCN(C)c1c(C(=O)N[C@H]2CCOc3ccccc32)cnc2c(-c3cc(Cl)cc(Cl)c3)c(C)nn12 [Example 561],8.2

# Test system: not listed separately
# Assay: log P by HPLC on reversed phase columns (Method L0; [a] acidic, [b] neutral range)
# Details: HPLC on reversed phase columns, Method L0, [a] acidic range
# Method: Calibration was done with straight-chain alkan-2-ones (with 3 to 16 carbon atoms) with known log P values (measurement of log P values using retention times with linear interpolation between successive alkanones). Lambda-max-values were determined using UV-spectra from 200 nm to 400 nm and the peak values of the chromatographic signals.
row,Compound,logP (Method L0) [a]
1,Cc1c(C(=O)N[C@H]2CCCc3ccccc32)cnc2c(-c3cccc(Cl)c3)cnn12 [Example 44],4.33
2,O=C(N[C@H]1CCc2ccccc21)c1cnc2c(-c3cc(Cl)cc(Cl)c3)cnn2c1 [Example 47],4.74
3,CC(C)c1c(C(=O)N[C@H]2CCc3ccccc32)cnc2c(-c3ccc(Cl)cc3)c(C(F)(F)F)nn12 [Example 49],5.48
4,O=C(N[C@H]1CCc2ccccc21)c1cnc2c(-c3cccc(Cl)c3)c(C(F)(F)F)nn2c1 [Example 50],4.57
5,CC(C)c1c(C(=O)N[C@H]2CCCc3ccccc32)cnc2c(-c3cccc(Cl)c3)c(C(F)(F)F)nn12 [Example 51],5.74
6,Cc1c(C(=O)N[C@H]2CCc3ccccc32)cnc2c(-c3cccc(Cl)c3)cnn12 [Example 52],4.04
7,Cc1c(C(=O)N[C@H]2CCCc3ccccc32)cnc2c(-c3ccc(Cl)cc3)c(C(F)(F)F)nn12 [Example 53],4.97
8,CC(C)c1c(C(=O)N[C@H]2CCCc3ccccc32)cnc2c(-c3ccc(Cl)cc3)c(C(F)(F)F)nn12 [Example 54],5.76
9,Cc1c(C(=O)N[C@H]2CCc3ccccc32)cnc2c(-c3cccc(Cl)c3)c(C(F)(F)F)nn12 [Example 55],4.68
10,Cc1c(C(=O)N[C@H]2CCc3ccccc32)cnc2c(-c3ccc(Cl)cc3)c(C(F)(F)F)nn12 [Example 57],4.7
11,Cc1c(C(=O)N[C@H]2CCCc3ccccc32)cnc2c(-c3cccc(Cl)c3)c(Cl)nn12 [Example 58],4.9
12,CC(C)c1c(C(=O)N[C@H]2CCCc3ccccc32)cnc2c(-c3cc(Cl)cc(Cl)c3)c(Cl)nn12 [Example 64],6.69
13,Cc1c(C(=O)N[C@H]2CCc3ccccc32)cnc2c(-c3cc(Cl)cc(Cl)c3)cnn12 [Example 65],4.84
14,Cc1c(C(=O)N[C@H]2CCc3ccccc32)cnc2c(-c3cc(Cl)cc(Cl)c3)c(Cl)nn12 [Example 66],5.47
15,O=C(N[C@H]1CCc2ccccc21)c1cnc2c(-c3cc(Cl)cc(Cl)c3)c(Cl)nn2c1 [Example 67],5.39
16,Cc1c(C(=O)N[C@H]2CCCc3ccccc32)cnc2c(-c3cc(Cl)cc(Cl)c3)c(Cl)nn12 [Example 68],5.78
17,Cc1c(C(=O)N[C@H]2CCCc3ccccc32)cnc2c(-c3cccc(C(F)(F)F)c3)c(Cl)nn12 [Example 69],5.03
18,Cc1c(C(=O)N[C@H]2CCc3ccccc32)cnc2c(-c3cccc(C(F)(F)F)c3)c(Cl)nn12 [Example 71],4.73
19,Cc1c(C(=O)N[C@H]2CCc3ccccc32)cnc2c(-c3cccc(Cl)c3)c(Cl)nn12 [Example 75],4.6
20,CC(C)c1c(C(=O)N[C@H]2CCCc3ccccc32)cnc2c(-c3ccc(Cl)cc3)c(Cl)nn12 [Example 76],5.79
21,O=C(N[C@H]1CCc2ccccc21)c1cnc2c(-c3ccc(Cl)cc3)c(C(F)(F)F)nn2c1 [Example 80],4.61
22,Cc1c(C(=O)N[C@H]2CCCc3ccccc32)cnc2c(-c3cc(Cl)cc(Cl)c3)c(C(F)(F)F)nn12 [Example 82],5.66
23,Cc1c(C(=O)N[C@H]2CCCc3ccccc32)cnc2c(-c3cccc(C(F)(F)F)c3)c(C(F)(F)F)nn12 [Example 83],5.03
24,O=C(N[C@H]1CCc2ccccc21)c1cnc2c(-c3ccccc3Cl)c(C(F)(F)F)nn2c1 [Example 84],4.15
25,Cc1c(C(=O)N[C@H]2CCc3ccccc32)cnc2c(-c3cccc(C(F)(F)F)c3)c(C(F)(F)F)nn12 [Example 85],4.77
26,Cc1c(C(=O)N[C@H]2CCCc3ccccc32)cnc2c(-c3cccc(Cl)c3)c(C(F)(F)F)nn12 [Example 86],4.94
